# Laboratory results published in PubChem BioAssay AID2060496 (Molecular Pharmacology Branch, DTP, NCI, 2025).
# Several values for one entry are separate records, joined by “and”; a condition that tells them apart may be missing. Equal entries are not always repeated.
# System: 276233-004-R-J1-PDC complex spheroid viability
# Assay: Anticancer human tumor 276233-004-R-J1-PDC patient-derived colon adenocarcinoma cell line growth inhibition [GQUAD]
# Conditions: for viability, T/C: stronger effect = lower value
# Source text: DNA G-quadruplex Stabilizer Agents in Combinations in Complex Spheroids
# A high-throughput screen of multi-cell type tumor spheroids was designed to identify active combinations of DNA G-quadruplex stabilizer agents and targeted small molecules. Complex spheroids include a stromal component modeled by human endothelial cells (HUVEC) and fibroblasts modeled by human mesenchymal stem cells (MSCs). The concentration ranges selected for each drug and investigational agent were based upon clinically achievable concentrations if the clinical Cmax of the agent was known.
# Compounds. The drugs and investigational agents: pidnarulex (CX-5461; NSC782164), APTO-253 (NSC789042), BRACO-19 (NSC847499), peposertib (NSC802822), ceralasertib (NSC780249), elimusertib (NSC800525), camonsertib (NSC841442), AZD-1390 (NSC803789), olaparib (NSC753686), talazoparib (NSC767125), ART-558 (NSC835418), sotorasib (NSC818433), MRTX-1133 (NSC836407), SN-38 (NSC673596), topotecan (NSC609699), etoposide (NSC141540), doxorubicin (NSC123127), gemcitabine (NSC613327), 5-fluorouracil (NSC19893), paclitaxel (NSC125973), vemurafenib (NSC761431), panobinostat (NSC761190), R-306465 (JNJ-16241199; NSC773264), adavosertib (NSC754352), TP-3654 (NSC805149), carboplatin (NSC241240), KSQ-4279 (NSC840948), and staurosporine (NSC755774) were obtained from the National Cancer Institute (NCI) Developmental Therapeutics Program Chemical Repository (34). The FDA-approved anticancer drug set is available from the NCI Developmental Therapeutics Program. […] The stock solutions were prepared in dimethyl sulfoxide (DMSO, Sigma-Aldrich, St. Louis, MO, cat. D2650) at 800-fold the tested concentration and stored at -70 degrees C prior to their use. All drugs and investigational agents were tested over a range starting from a high concentration at or near the clinical Cmax and decreasing in half-log increments. If the clinical Cmax for an agent had not been determined, the highest concentration tested was 10 microM.
# 2.3 Cell Culture. All cells were maintained in an incubator at 37 degrees C and 5% CO2 with 95% humidity. The PDC lines were cultured according to standard operating procedures established by the NCI PDMR. All PDCs were thawed and cultured in Matrigel-coated flasks prepared with a working solution of 1X Ham's F-12 nutrient mix, without supplementation (Invitrogen, cat. 11765054), 100 U/mL penicillin-streptomycin (Invitrogen, cat. 15140122), and 2.5% Matrigel (Corning Inc., cat. 354248) for the first three passages. The 857933-349-R-J2-PDC line was cultured in 6C/Colon 1B media, which includes advanced DMEM/F-12 (Thermo Fisher Scientific, cat. 12634028), 10 mM HEPES (Thermo Fisher Scientific, cat. 15630080), 1X GlutaMAX supplement (Thermo Fisher Scientific, cat. 35050061), 0.1 mg/mL primocin (InvivoGen, cat. ant-pm-2), 10% defined fetal bovine serum, heat inactivated (HyClone Laboratories Inc., cat. SH30070.03HI), 50% L-WRN conditioned media (ATCC, cat. CRL-3276), 1.25 mM N-Acetyl-L-cysteine (Sigma-Aldrich, cat. A9165), 10 mM nicotinamide (Sigma-Aldrich, cat. N0636), 1X B-27 supplement (Thermo Fisher Scientific, cat. 17504044), 1X N-2 supplement (Thermo Fisher Scientific, cat. 17502048), 10 microM Y-27632 dihydrochloride (Tocris Bioscience, cat. 1254), and 50 ng/mL human EGF recombinant protein (Thermo Fisher Scientific, cat. PHG0311). The 485176-168-R4-J1-PDC line was cultured in Panc media, which includes all 6C/Colon 1B media components plus 100 ng/mL human FGF-10 (Thermo Fisher Scientific, cat. 100-26), 500 nM SB-431542 (Selleckchem, cat. S1067), and gastrin (Tocris, cat. 3006).
# […]
# [1] = curve of first compound, second compound 0.0316 µM
# [2] = curve of first compound, second compound 0.1 µM
# [3] = curve of first compound, second compound 0.316 µM
# [4] = curve of first compound, second compound 1 µM
# [5] = curve of first compound, second compound 3.16 µM
# [6] = curve of first compound, second compound 10 µM
# [7] = second compound 0.0316 µM, first compound 0.0316 µM
# [8] = second compound 0.0316 µM, first compound 0.1 µM
# [9] = second compound 0.0316 µM, first compound 0.316 µM
# [10] = second compound 0.0316 µM, first compound 1 µM
# [11] = second compound 0.0316 µM, first compound 3.16 µM
# [12] = second compound 0.0316 µM, first compound 10 µM
# [13] = second compound 0.1 µM, first compound 0.0316 µM
# [14] = second compound 0.1 µM, first compound 0.1 µM
# [15] = second compound 0.1 µM, first compound 0.316 µM
# [16] = second compound 0.1 µM, first compound 1 µM
# [17] = second compound 0.1 µM, first compound 3.16 µM
# [18] = second compound 0.1 µM, first compound 10 µM
# [19] = second compound 0.316 µM, first compound 0.0316 µM
# [20] = second compound 0.316 µM, first compound 0.1 µM
# [21] = second compound 0.316 µM, first compound 0.316 µM
# [22] = second compound 0.316 µM, first compound 1 µM
# [23] = second compound 0.316 µM, first compound 3.16 µM
# [24] = second compound 0.316 µM, first compound 10 µM
# [25] = second compound 1 µM, first compound 0.0316 µM
# [26] = second compound 1 µM, first compound 0.1 µM
# [27] = second compound 1 µM, first compound 0.316 µM
# [28] = second compound 1 µM, first compound 1 µM
# [29] = second compound 1 µM, first compound 3.16 µM
# [30] = second compound 1 µM, first compound 10 µM
# [31] = second compound 3.16 µM, first compound 0.0316 µM
# [32] = second compound 3.16 µM, first compound 0.1 µM
# [33] = second compound 3.16 µM, first compound 0.316 µM
# [34] = second compound 3.16 µM, first compound 1 µM
# [35] = second compound 3.16 µM, first compound 3.16 µM
# [36] = second compound 3.16 µM, first compound 10 µM
# [37] = second compound 10 µM, first compound 0.0316 µM
# [38] = second compound 10 µM, first compound 0.1 µM
# [39] = second compound 10 µM, first compound 0.316 µM
# [40] = second compound 10 µM, first compound 1 µM
# [41] = second compound 10 µM, first compound 3.16 µM
# [42] = second compound 10 µM, first compound 10 µM
# 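Note: spheroids exposed to drugs for seven days.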
# 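Throughout, for viability, T/C: 100% = DMSO vehicle control viability.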
structure (smiles),measurement,setting,value
O=c1[nH]cc(F)c(=O)[nH]1 + CN(C)c1ccc(Nc2c3ccc(NC(=O)CCN4CCCC4)cc3nc3cc(NC(=O)CCN4CCCC4)ccc23)cc1,IC50,[1],> 10 µM
same,IC50,[2],> 10 µM
same,IC50,[3],> 10 µM
same,IC50,[4],> 10 µM
same,IC50,[5],> 10 µM
same,IC50,[6],> 10 µM
same,"viability, T/C",[7],93.7%
same,"viability, T/C",[8],83.7%
same,"viability, T/C",[9],108%
same,"viability, T/C",[10],108%
same,"viability, T/C",[11],90.2%
same,"viability, T/C",[12],103%
same,"viability, T/C",[13],92%
same,"viability, T/C",[14],76.5%
same,"viability, T/C",[15],80.5%
same,"viability, T/C",[16],88.5%
same,"viability, T/C",[17],75.1%
same,"viability, T/C",[18],103%
same,"viability, T/C",[19],69.1%
same,"viability, T/C",[20],62.3%
same,"viability, T/C",[21],60.1%
same,"viability, T/C",[22],61%
same,"viability, T/C",[23],72.2%
same,"viability, T/C",[24],61.8%
same,"viability, T/C",[25],66.8%
same,"viability, T/C",[26],62.9%
same,"viability, T/C",[27],63.7%
same,"viability, T/C",[28],66.2%
same,"viability, T/C",[29],52.2%
same,"viability, T/C",[30],59.3%
same,"viability, T/C",[31],59.3%
same,"viability, T/C",[32],58.5%
same,"viability, T/C",[33],54.9%
same,"viability, T/C",[34],57.9%
same,"viability, T/C",[35],69.8%
same,"viability, T/C",[36],62.4%
same,"viability, T/C",[37],49.8%
same,"viability, T/C",[38],54.9%
same,"viability, T/C",[39],51.5%
same,"viability, T/C",[40],46.1%
same,"viability, T/C",[41],51.3%
same,"viability, T/C",[42],59.1%
CC(=O)O[C@H]1C(=O)[C@@]2(C)[C@H]([C@H](OC(=O)c3ccccc3)[C@]3(O)C[C@H](OC(=O)[C@H](O)[C@@H](NC(=O)c4ccccc4)c4ccccc4)C(C)=C1C3(C)C)[C@]1(OC(C)=O)CO[C@@H]1C[C@@H]2O + CN(C)c1ccc(Nc2c3ccc(NC(=O)CCN4CCCC4)cc3nc3cc(NC(=O)CCN4CCCC4)ccc23)cc1,IC50,[1],> 10 µM
same,IC50,[2],> 10 µM
same,IC50,[3],> 10 µM
same,IC50,[4],4.25 µM
same,IC50,[5],< 0.0316 µM
same,IC50,[6],< 0.0316 µM
same,"viability, T/C",[7],86.5%
same,"viability, T/C",[8],98.3%
same,"viability, T/C",[9],87.9%
same,"viability, T/C",[10],85.2%
same,"viability, T/C",[11],88%
same,"viability, T/C",[12],80.6%
same,"viability, T/C",[13],70.4%
same,"viability, T/C",[14],82.2%
same,"viability, T/C",[15],65.8%
same,"viability, T/C",[16],79.7%
same,"viability, T/C",[17],69.8%
same,"viability, T/C",[18],69.8%
same,"viability, T/C",[19],67.5%
same,"viability, T/C",[20],65.5%
same,"viability, T/C",[21],57.4%
same,"viability, T/C",[22],54.1%
same,"viability, T/C",[23],67.8%
same,"viability, T/C",[24],54.9%
same,"viability, T/C",[25],52.7%
same,"viability, T/C",[26],52.6%
same,"viability, T/C",[27],57%
same,"viability, T/C",[28],55.9%
same,"viability, T/C",[29],54.4%
same,"viability, T/C",[30],41.7%
same,"viability, T/C",[31],44.4%
same,"viability, T/C",[32],41.9%
same,"viability, T/C",[33],37.2%
same,"viability, T/C",[34],49.5%
same,"viability, T/C",[35],50%
same,"viability, T/C",[36],49.7%
same,"viability, T/C",[37],36.8%
same,"viability, T/C",[38],44.1%
same,"viability, T/C",[39],43.7%
same,"viability, T/C",[40],44.3%
same,"viability, T/C",[41],51.9%
same,"viability, T/C",[42],51.7%
CC(C)n1c(=O)n(C)c2cnc3cc(F)c(-c4ccc(OCCCN5CCCCC5)nc4)cc3c21,"viability, T/C",compound 0.0316 µM,91.9% and 80.4% and 93.2%
same,"viability, T/C",compound 0.1 µM,86.8% and 101% and 78.8%
same,"viability, T/C",compound 0.316 µM,107% and 86.6% and 73.3%
same,"viability, T/C",compound 1 µM,99.4% and 85.9% and 73.2%
same,"viability, T/C",compound 3.16 µM,108% and 84.9% and 95.3%
same,"viability, T/C",compound 10 µM,86.9% and 68.8% and 77%
same,IC50,curve of compound,> 10 µM
C#Cc1c(F)ccc2cc(O)cc(-c3ncc4c(N5CC6CCC(C5)N6)nc(OCC56CCCN5CC(F)C6)nc4c3F)c12 (stereo not drawn),"viability, T/C",compound 0.0316 µM,92.7% and 70.8% and 78.7%
same,"viability, T/C",compound 0.1 µM,73.1% and 96.4% and 89.9%
same,"viability, T/C",compound 0.316 µM,66.8% and 78.3% and 71.8%
same,"viability, T/C",compound 1 µM,87.9% and 83.5% and 69.9%
same,"viability, T/C",compound 3.16 µM,86.9% and 49.7% and 45.9%
same,"viability, T/C",compound 10 µM,68.2% and 36.4% and 44.5%
same,IC50,curve of compound,> 10 µM and 3.14 µM and 2.93 µM
